These results are taken from US12419869B2, “Methods of treating multiple sclerosis” (Vanda Pharmaceuticals Inc., priority 2021, dated 2025).

Data set [1] relates to adult subjects with relapsing MS. The data set is described as follows: Pulmonary function (percent predicted FEV1), Study 1. Type of data set: in vivo, human. As to the method:
In Study 1, the reduction from baseline in percent predicted FEV1 at 2 years was 8.3% in PONVORY-treated patients compared to 4.4% in patients receiving teriflunomide 14 mg. In Study 1, 7 patients discontinued PONVORY because of pulmonary adverse events. There is insufficient information to determine the reversibility of the decrease in FEV1 or FVC after treatment discontinuation. PONVORY should be used with caution in patients with severe respiratory disease (i.e., pulmonary fibrosis, asthma, and chronic obstructive pulmonary disease). Spirometric evaluation of respiratory function should be performed during therapy with PONVORY if clinically indicated.

For data set [2] the test system is unchanged. The data set is described as follows: Confirmed relapses / annualized relapse rate up to EOS, phase III study ponesimod 20 mg vs teriflunomide 14 mg. Type of data set: in vivo, human. The following applies: for Mean estimate (ARR), confirmed relapses up to EOS: negative binomial regression, teriflunomide 14 mg, ponesimod 20 mg; for Percentage of patients without relapse: study period of approximately 108 weeks. As to the method: Primary efficacy variable/primary timepoint: The primary endpoint was annualized relapse rate (ARR) up to the end of study (EOS) defined as the number of confirmed relapses per subject-year. All available data up to EOS, regardless of treatment discontinuation was included (ITT approach).
The primary statistical analysis of the ARR endpoint was performed on the FAS using a negative binomial model for confirmed relapses, with the stratification variables prior use of disease-modifying therapies (DMTs) and EDSS category as well as the number of relapses in the year prior to study entry, included in the model and time in the study as an offset variable. Sensitivity analyses was performed on the PPS and also based on different subgroups derived from baseline variables.
A relapse is defined as new, worsening or recurrent neurological symptoms that occur at least 30 days after the onset of a preceding relapse, and that last at least 24 hours, in the absence of fever or infection.
A relapse was confirmed by the treating neurologist only when the subjects' symptoms were accompanied by an increase in EDSS/FS (functional system) scores, which were consistent with the subject's symptoms, from a previous clinically stable EDSS/FS assessment (i.e., performed at least 30 days after the onset of any previous relapse), obtained by the efficacy assessor and consistent with the following: • An increase of at least half a step (0.5 points; unless EDSS=0, then an increase of at least 1.0 points is required) or • An increase of at least 1.0 point in at least two FS scores, or • An increase of at least 2.0 points in at least one FS score (excluding bladder/bowel and cerebral).
The primary statistical analysis was performed up to EOS on the FAS using a negative binomial regression model for confirmed relapses, with treatment as a factor and the binary stratification variables (EDSS≤3.5 versus EDSS>3.5; DMTs within last 2 years prior to randomization [Yes/No]) and the number of relapses in the year prior to study entry (categories≤1 (or missing) and […]) included in the model. The model also included an offset variable defined as the log of time on study (in years) from randomization up to EOS.

For data set [3] the test system is unchanged. The experiment in a line: Blood pressure, Study 1. Type of data set: in vivo, human. The following applies: for Average increase in diastolic blood pressure / Average increase in systolic blood pressure: Study 1. The procedure:
An increase in blood pressure with PONVORY was first detected after approximately 1 month of treatment initiation and persisted with continued treatment. Hypertensive events were reported as an adverse reaction in 10.1% of PONVORY-treated patients and in 9.0% of patients receiving teriflunomide 14 mg. One patient treated with PONVORY experienced a hypertensive crisis but had evidence of longstanding hypertensive heart disease. Blood pressure should be monitored during treatment with PONVORY and managed appropriately.

Another data set is described as follows: Ames assay. Type of data set: cell-based. The following applies: in vitro. The source says: Ponesimod was negative in a battery of in vitro (Ames, chromosomal aberration in mammalian cells) and in vivo (micronucleus in rat) assays.
(In general: In the Ames test, an excess of revertant colonies over the control signals mutagenicity.)

The test system of data set [4] is adult subjects with relapsing MS. Further details: species or system human. The conditions noted are these: in vivo; for Discontinuation rate because of elevations in hepatic enzymes / Patients with elevations of ALT to 5-fold the ULN or greater / Subjects with ALT increase >3×ULN (label: 3-fold the ULN or greater) / Subjects with ALT increase >8×ULN: human, 2 year. From the text: Based on the individual case review, most ALT/AST increases ≥3×ULN occurred as a single transient asymptomatic episode, resolving with continued treatment or after protocol mandated treatment discontinuation. All but one case of bilirubin increase ≥2×ULN occurred in subjects with pre-treatment bilirubin increases. One case of potential Hy's law occurred in a subject with pre-existing transaminase elevation (ALT>5×ULN), and the event fully resolved within 2 weeks after treatment discontinuation.
In Study 1, elevations of ALT to 5-fold the upper limit of normal (ULN) or greater occurred in 4.6% of patients treated with PONVORY compared to 2.5% of patients who received teriflunomide 14 mg. […] The median time to an elevation of 3-fold the ULN was 3 months. The majority (89%) of patients with ALT increases 3-fold or greater the ULN continued treatment with PONVORY with values returning to less than three times the ULN within approximately 2-4 weeks.

Data set [5] shares this test system. The data set is described as follows: 12-lead ECG heart rate and AV conduction at treatment initiation (Day 1, ponesimod 2 mg). The format is in vivo, human. The procedure:
As per up-titration regimen, the dose of ponesimod on Day 1 is 2 mg.
The incidence of treatment-emergent heart rate and rhythm (including hypotension) AESIs on Day 1 was higher in the ponesimod 20 mg arm (2.1%) than in the teriflunomide 14 mg arm (0.4%). However, the overall incidence of first dose AESI on Day 1 was low (2.1%) in ponesimod. None of these events were serious nor led to permanent discontinuation of study treatment. Discharge criteria at 4 hours post-dose were met for ca. 99% of subjects. […] ECG HR effect: nadir at 2 hours post-dose (siponimod—3-4 hours, fingolimod—around by 6 hours). Low incidence of low HR outliers (post-dose HR 40 bpm), all 3 of them with a pre-treatment HR of <55 bpm, which is a known risk factor for post-dose bradycardia with SIP receptor modulators.
The mean heart rate reduction compared to pre-dose reached a maximum for ponesimod 20 mg at 2-hours post dose, −8.7 bpm compared to −1.7 bpm for teriflunomide 14 mg (FIG. 6).
Initiation of PONVORY may result in a transient decrease in HR. In Study 1, bradycardia at treatment initiation and sinus bradycardia on ECG (defined as HR less than 50 bpm) occurred in 5.8% of PONVORY-treated patients compared to 1.6% of patients receiving teriflunomide 14 mg. After the first titration dose of PONVORY, the decrease in heart rate typically begins within an hour and reaches its nadir within 2-4 hours. The heart rate typically recovers to baseline levels 4-5 hours after administration. The mean decrease in heart rate on Day 1 of dosing was 6 bpm. With up-titration after Day 1, the post-dose decrease in heart rate is less pronounced. […] On Day 1, 3 patients treated with PONVORY had asymptomatic post-dose HR below or equal to 40 bpm; all 3 patients had baseline HRs below 55 bpm.

On to `CCC/N=C1\S/C(=C\c2ccc(OC[C@H](O)CO)c(Cl)c2)C(=O)N1c1ccccc1C` [Ponesimod, (R)-5-[3-chloro-4-(2,3-dihydroxy-propoxy)-benz[Z]ylidene]-2-([Z]-propylimino)-3-o-tolyl-thiazolidin-4-one], for which, in data set [1], the “Patients who discontinued because of pulmonary adverse events” value is on record as 7 and the “Reduction from baseline in percent predicted FEV1 at 2 years” value is 8.3%. In addition, in data set [2] (Full Analysis Set, up to EOS), the “Raw ARR” value was found to be 0.216; the “Total number of relapses” value amounted to 242; the “Treatment effect (rate ratio) on ARR, ponesimod vs teriflunomide” value was 0.695. Besides, the “Mean estimate (ARR), confirmed relapses up to EOS” value in data set [2] (Full Analysis Set) was 0.202. Moreover, the “Percentage of patients without relapse” value in data set [2] is 70.7%. In addition, in data set [2] (up to EOS), the “Relative reduction of ARR compared to teriflunomide 14 mg” value is 30.5%. For the same compound, in data set [3], the “Average increase in diastolic blood pressure” value is 2.8 mm Hg and the “Average increase in systolic blood pressure” value is 2.9 mm Hg. For the same compound, the “Time after treatment initiation at which blood pressure increase was first detected” value in data set [3] (in vivo) is on record as “approximately 1 month”. For the same compound, the Ames assay result in the data set “Ames assay” is “negative”. Moreover, in data set [4], the “Discontinuation rate because of elevations in hepatic enzymes” value was determined as 2.3%, the “Patients with elevations of ALT to 5-fold the ULN or greater” value was determined as 4.6%, the “Subjects with ALT increase >3×ULN (label: 3-fold the ULN or greater)” value is reported as 17.3% and the “Subjects with ALT increase >8×ULN” value was found to be 0.7%. Also, in data set [4], the “Median time to an ALT elevation of 3-fold the ULN” value stood at 3 months, the “Patients with ALT increases 3-fold or greater the ULN who continued treatment” value was found to be 89% and the “Time for ALT values returning to less than three times the ULN on continued treatment” value is recorded as 2-4 weeks. Moreover, in data set [5] (Day 1), the “Mean heart rate change compared to pre-dose at 2 hours post dose (maximum)” value is reported as −8.7 bpm, the “Subjects meeting discharge criteria at 4 hours post-dose” value is “ca. 99%”, the “Subjects with asymptomatic post-dose HR ≤40 bpm” value was determined as 3 and the “Time for heart rate to recover to baseline / pre-dose values” was 4 to 5 h. The “ECG HR effect: time of nadir post-dose” value in data set [5] (Day 1, 2 mg) was determined as 2 h. Moreover, in data set [5] (Study 1), the “Bradycardia at treatment initiation and sinus bradycardia on ECG (HR less than 50 bpm)” value worked out at 5.8%; the “First-degree AV block (prolonged PR interval on ECG)” value was 3.4%; the “Mean decrease in heart rate on Day 1 of dosing” value came out at 6 bpm; the “Second- and third-degree AV blocks” value is reported as “not reported”. Also, the “Time to heart rate nadir / maximal effect after first dose” value in data set [5] (post-dose) is 2 to 4 h.
Take `C/C(O)=C(\C#N)C(=O)Nc1ccc(C(F)(F)F)cc1` [Teriflunomide, reference compound]: in data set [1], the “Reduction from baseline in percent predicted FEV1 at 2 years” value is listed as 4.4%. In addition, the “Mean estimate (ARR), confirmed relapses up to EOS” value in data set [2] (Full Analysis Set) is given as 0.290. Besides, in data set [2], the “Percentage of patients without relapse” value is 60.6%. For the same compound, in data set [3], the “Average increase in diastolic blood pressure” value is on record as 3.1 mm Hg and the “Average increase in systolic blood pressure” value is on record as 2.8 mm Hg. Also, in data set [4], the “Discontinuation rate because of elevations in hepatic enzymes” value was 1.9%, the “Patients with elevations of ALT to 5-fold the ULN or greater” value turned out to be 2.5%, the “Subjects with ALT increase >3×ULN (label: 3-fold the ULN or greater)” value is given as 8.3% and the “Subjects with ALT increase >8×ULN” value is on record as 2.1%. Also, in data set [5] (Day 1), the “Mean heart rate change compared to pre-dose at 2 hours post dose (maximum)” value is given as −1.7 bpm and the “Subjects with asymptomatic post-dose HR ≤40 bpm” value was “none”. For the same compound, in data set [5] (Study 1), the “Bradycardia at treatment initiation and sinus bradycardia on ECG (HR less than 50 bpm)” value is recorded as 1.6%; the “First-degree AV block (prolonged PR interval on ECG)” value is on record as 1.2%.
